Test results from patent publication US9873709B2 (priority 2013, dated 2018).
Like-named read-outs stand apart in the source and are kept apart here.

Assays:
[1] = tested on: JAK1-dependent STAT6 phosphorylation downstream of IL-13 stimulation in TF-1 human erythroleukemia cells; assay: cells; conditions: TF-1, read-out: IL-13-pSTAT6 IC50
[2] = biological target: isolated recombinant JAK2 kinase domain (Homo sapiens (Human), UniProt O60674); conditions: read-out: JAK2 Ki
[3] = isolated recombinant JAK2 kinase domain, 25 μM ATP

Chain of isolated recombinant JAK2 kinase domain (O60674 849-1124): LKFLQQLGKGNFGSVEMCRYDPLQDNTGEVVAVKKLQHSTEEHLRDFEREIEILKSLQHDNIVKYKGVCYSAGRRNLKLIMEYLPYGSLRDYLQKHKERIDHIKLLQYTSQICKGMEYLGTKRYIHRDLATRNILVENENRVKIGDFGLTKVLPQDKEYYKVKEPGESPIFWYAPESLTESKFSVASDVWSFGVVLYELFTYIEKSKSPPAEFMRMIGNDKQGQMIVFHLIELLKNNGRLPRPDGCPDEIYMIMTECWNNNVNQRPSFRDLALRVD

Structure (SMILES): O=C(c1ccc(Nc2nc3c(N4CCC(O)(c5ccc(Cl)cc5)CC4)cccn3n2)cc1)N1CCN(Cc2cccnc2)CC1 [Example 1-123, [4-[[8-[4-(4-chlorophenyl)-4-hydroxy-1-piperidyl]-[1,2,4]triazolo[1,5-a]pyridin-2-yl]amino]phenyl]-[4-(3-pyridylmethyl)piperazin-1-yl]methanone]
- IC50 [1]: 25.8 nM
- Ki [2, 3]: 0.7 nM

Structure (SMILES): CN1CCC(N(C)C(=O)c2ccc(Nc3nc4c(N5CCC(CC(=O)N(C)C)(c6ccc(Cl)cc6)CC5)cccn4n3)cc2)CC1 [Example 1-300, 4-([8-[4-(4-chlorophenyl)-4-[(dimethylcarbamoyl)methyl]piperidin-1-yl]-[1,2,4]triazolo[1,5-a]pyridin-2-yl]amino)-N-methyl-N-(1-methylpiperidin-4-yl)benzamide]
- IC50 [1]: 26.3 nM
- Ki [2, 3]: 0.55 nM

Structure (SMILES): CCc1ccc(C2(O)CCN(c3cccn4nc(Nc5ccc(C(=O)N(C)C6CCN(C)CC6)cc5)nc34)CC2)cc1 [Example 1-36, 4-[[8-[4-(4-ethylphenyl)-4-hydroxy-1-piperidyl]-[1,2,4]triazolo[1,5-a]pyridin-2-yl]amino]-N-methyl-N-(1-methyl-4-piperidyl)benzamide]
- IC50 [1]: 142 nM
- Ki [2, 3]: 4.32 nM

Structure (SMILES): CN1CCN(C2CCN(C(=O)c3ccc(Nc4nc5c(N6CCC(O)(c7ccc(Cl)cc7)CC6)cccn5n4)cc3)CC2)CC1 [Example 1-117, [4-[[8-[4-(4-chlorophenyl)-4-hydroxy-1-piperidyl]-[1,2,4]triazolo[1,5-a]pyridin-2-yl]amino]phenyl]-[4-(4-methylpiperazin-1-yl)-1-piperidyl]methanone]
- IC50 [1]: 29.2 nM
- Ki [2, 3]: 0.85 nM

Structure (SMILES): CN1CCC(N(C)C(=O)c2ccc(Nc3nc4c(C5=CCC(CC#N)(c6ccc(Cl)cc6)CC5)cccn4n3)cc2)CC1 (stereo not shown) [Example 1-294, 4-([8-[4-(4-chlorophenyl)-4-(cyanomethyl)cyclohex-1-en-1-yl]-[1,2,4]triazolo[1,5-a]pyridin-2-yl]amino)-N-methyl-N-(1-methylpiperidin-4-yl)benzamide]
- IC50 [1]: 62.7 nM
- Ki [2]: 0.4 nM

Structure (SMILES): CN1CCC(OC(=O)c2ccc(Nc3nc4c(N5CCC(O)(c6ccc(Cl)cc6)CC5)cccn4n3)cc2)CC1 [Example 1-178, (1-methyl-4-piperidyl) 4-[[8-[4-(4-chlorophenyl)-4-hydroxy-1-piperidyl]-[1,2,4]triazolo[1,5-a]pyridin-2-yl]amino]benzoate]
- IC50 [1]: 98.3 nM
- Ki [2, 3]: 1.07 nM

Structure (SMILES): COCCOc1cc(COC2CCN(c3cccn4nc(Nc5ccc(C(=O)N(C)C6CCN(C)CC6)cc5)nc34)CC2)ccn1 [Example 1-44, 4-[[8-[4-[[2-(2-methoxyethoxy)-4-pyridyl]methoxy]-1-piperidyl]-[1,2,4]triazolo[1,5-a]pyridin-2-yl]amino]-N-methyl-N-(1-methyl-4-piperidyl)benzamide]
- IC50 [1]: 168 nM
- Ki [2, 3]: 7.03 nM

Structure (SMILES): CN1CCC(N(C)C(=O)c2ccc(Nc3nc4c(N5CCC(CC(N)=O)(c6ccccc6)CC5)cccn4n3)cc2)CC1 [Example 1-30, 4-[[8-[4-(2-amino-2-oxo-ethyl)-4-phenyl-1-piperidyl]-[1,2,4]triazolo[1,5-a]pyridin-2-yl]amino]-N-methyl-N-(1-methyl-4-piperidyl)benzamide]
- IC50 [1]: 252 nM
- Ki [2, 3]: 0.27 nM

Structure (SMILES): O=C(c1ccc(Nc2nc3c(N4CCC(O)(c5ccc(Cl)cc5)CC4)cccn3n2)cc1)N1CCCC1c1ccncc1 (stereo not shown) [Example 1-147, [4-[[8-[4-(4-chlorophenyl)-4-hydroxy-1-piperidyl]-[1,2,4]triazolo[1,5-a]pyridin-2-yl]amino]phenyl]-[2-(4-pyridyl)pyrrolidin-1-yl]methanone]
- IC50 [1]: 66.5 nM
- Ki [2, 3]: 1.41 nM

Structure (SMILES): CC(C)CN1CCC(N(C)C(=O)Cn2cc(Nc3nc4c(C5=CCN(C(=O)CCC(F)(F)F)CC5)cccn4n3)cn2)CC1 [Example 1-297, N-methyl-N-[1-(2-methylpropyl)piperidin-4-yl]-2-[4-([8-[1-(4,4,4-trifluorobutanoyl)-1,2,3,6-tetrahydropyridin-4-yl]-[1,2,4]triazolo[1,5-a]pyridin-2-yl]amino)-1H-pyrazol-1-yl]acetamide]
- IC50 [1]: 36.7 nM
- Ki [2]: 9.44 nM

Structure (SMILES): CN1CCC(N(C)C(=O)c2ccc(Nc3nc4c(N5CCC(CO)(c6ccc(Cl)cc6)CC5)cccn4n3)cc2)CC1 [Example 1-246]
- IC50 [1]: 5.4 nM
- Ki [2]: 0.33 nM

Structure (SMILES): CN1CCCC(CN(C)C(=O)c2ccc(Nc3nc4c(N5CCC(O)(c6ccc(Cl)cc6)CC5)cccn4n3)cc2)C1 (stereo not shown) [Example 1-170, 4-[[8-[4-(4-chlorophenyl)-4-hydroxy-1-piperidyl]-[1,2,4]triazolo[1,5-a]pyridin-2-yl]amino]-N-methyl-N-[(1-methyl-3-piperidyl)methyl] benzamide]
- IC50 [1]: 15.5 nM
- Ki [2, 3]: 0.98 nM

Structure (SMILES): CNC(=O)C1CN(C(=O)c2ccc(Nc3nc4c(N5CCC(O)(c6ccc(Cl)cc6)CC5)cccn4n3)cc2)CCN1Cc1ccccc1 (stereo not shown) [Example 1-153, 1-benzyl-4-[4-[[8-[4-(4-chlorophenyl)-4-hydroxy-1-piperidyl]-[1,2,4]triazolo[1,5-a]pyridin-2-yl]amino]benzoyl]-N-methyl-piperazine-2-carboxamide]
- IC50 [1]: 26 nM
- Ki [2, 3]: 1.14 nM

Structure (SMILES): CN1CCC(N(C)C(=O)c2ccc(Nc3nc4c(N5CCN(C(=O)N6CC(C)(C)C6)CC5)cccn4n3)cc2)CC1 [Example 1-34, 4-[[8-[4-(3,3-dimethylazetidine-1-carbonyl)piperazin-1-yl]-[1,2,4]triazolo[1,5-a]pyridin-2-yl]amino]-N-methyl-N-(1-methyl-4-piperidyl)benzamide]
- IC50 [1]: 916 nM
- Ki [2, 3]: 8.61 nM

Structure (SMILES): CN1CCC(N(C)C(=O)c2ccc(Nc3nc4c(N5CCC(CO)(CNCC(F)(F)F)CC5)cccn4n3)cc2)CC1 [Example 1-266, 4-([8-[4-(hydroxymethyl)-4-[[(2,2,2-trifluoroethyl)amino]methyl]piperidin-1-yl]-[1,2,4]triazolo[1,5-a]pyridin-2-yl]amino)-N-methyl-N-(1-methylpiperidin-4-yl)benzamide]
- Ki [2, 3]: 2.54 nM

Structure (SMILES): CN1CCC(N(C)C(=O)c2ccc(Nc3nc4c(N5CCN6C(=O)NCCC6C5)cccn4n3)cc2)CC1 (stereo not shown) [Example 1-31, N-methyl-N-(1-methyl-4-piperidyl)-4-[[8-(6-oxo-3,4,7,8,9,9a-hexahydro-1H-pyrazino[1,2-c]pyrimidin-2-yl)-[1,2,4]triazolo[1,5-a]pyridin-2-yl]amino]benzamide]
- Ki [2, 3]: 52.4 nM

Structure (SMILES): CN1CCC(N(C)C(=O)c2ccc(Nc3nc4c(N5CCC=C(c6ccccc6)CC5)cccn4n3)cc2)CC1 [Example 1-14, N-methyl-N-(1-methyl-4-piperidyl)-4-[[8-(4-phenyl-2,3,6,7-tetrahydroazepin-1-yl)-[1,2,4]triazolo[1,5-a]pyridin-2-yl]amino]benzamide]
- Ki [2, 3]: 7.53 nM

Structure (SMILES): CN1CCC(N(C)C(=O)c2ccc(Nc3nc4c(N5CCC(O)(c6cccc(Cl)c6)CC5)cccn4n3)cc2)CC1 [Example 1-18, 4-[[8-[4-(3-chlorophenyl)-4-hydroxy-1-piperidyl]-[1,2,4]triazolo[1,5-a]pyridin-2-yl]amino]-N-methyl-N-(1-methyl-4-piperidyl)benzamide]
- Ki [2, 3]: 17.3 nM

Structure (SMILES): CN1CCC(N(C)C(=O)c2ccc(Nc3nc4c(N5CCN6C(=O)COC[C@@H]6C5)cccn4n3)cc2)CC1 [Example 1-32, 4-[[8-[(9aS)-4-oxo-6,7,9,9a-tetrahydro-1H-pyrazino[2,1-c][1,4]oxazin-8-yl]-[1,2,4]triazolo[1,5-a]pyridin-2-yl]amino]-N-methyl-N-(1-methyl-4-piperidyl)benzamide]
- Ki [2, 3]: 28.8 nM

Structure (SMILES): CN1CCC(N(C)C(=O)c2ccc(Nc3nc4c(N5CCC6(CC5)CNC(=O)C6)cccn4n3)cc2)CC1 [Example 1-27, N-methyl-N-(1-methyl-4-piperidyl)-4-[[8-(3-oxo-2,8-diazaspiro[4.5]decan-8-yl)-[1,2,4]triazolo[1,5-a]pyridin-2-yl]amino]benzamide]
- Ki [2, 3]: 17.2 nM

Structure (SMILES): CN1CCC(N(C)C(=O)c2ccc(Nc3nc4c(N5CC6CC5CN6Cc5ccccc5)cccn4n3)cc2)CC1 (stereo not shown) [Example 1-293, 4-[[8-(5-benzyl-2,5-diazabicyclo[2.2.1]heptan-2-yl)-[1,2,4]triazolo[1,5-a]pyridin-2-yl]amino]-N-methyl-N-(1-methyl-4-piperidyl)benzamide]
- Ki [2, 3]: 110 nM

Structure (SMILES): CN1CCC(N(C)C(=O)c2ccc(Nc3nc4c(N5CCC(C)(c6ccccc6)CC5)cccn4n3)cc2)CC1 [Example 1-1, N-methyl-4-(8-(4-methyl-4-phenylpiperidin-1-yl)-[1,2,4]triazolo[1,5-a]pyridin-2-ylamino)-N-(1-methylpiperidin-4-yl)benzamide]
- Ki [2, 3]: 0.85 nM

Structure (SMILES): COc1ccc(C2(O)CCN(c3cccn4nc(Nc5ccc(C(=O)N(C)C6CCN(C)CC6)cc5)nc34)CC2)cc1 [Example 1-40, 4-[[8-[4-hydroxy-4-(4-methoxyphenyl)-1-piperidyl]-[1,2,4]triazolo[1,5-a]pyridin-2-yl]amino]-N-methyl-N-(1-methyl-4-piperidyl)benzamide]
- Ki [2, 3]: 4.58 nM

Structure (SMILES): CN1CCC(N(C)C(=O)c2ccc(Nc3nc4c(N5CCC(C(=O)O)(c6ccc(Cl)cc6)CC5)cccn4n3)cc2)CC1 [Example 1-269, 4-(4-chlorophenyl)-1-[2-([4-[methyl(1-methylpiperidin-4-yl)carbamoyl]phenyl]amino)-[1,2,4]-triazolo[1,5-a]pyridin-8-yl]piperidine-4-carboxylic acid]
- Ki [2, 3]: 13.2 nM

Structure (SMILES): CN1CCC(N(C)C(=O)c2ccc(Nc3nc4c(N5CCN6CCOC[C@@H]6C5)cccn4n3)cc2)CC1 [Example 1-25, 4-[[8-[(9aS)-3,4,6,7,9,9a-hexahydro-1H-pyrazino[2,1-c][1,4]oxazin-8-yl]-[1,2,4]triazolo[1,5-a]pyridin-2-yl]amino]-N-methyl-N-(1-methyl-4-piperidyl)benzamide]
- Ki [2, 3]: 49.1 nM

Structure (SMILES): CN1CCC(N(C)C(=O)c2ccc(Nc3nc4c(N5CCc6ccccc6C5)cccn4n3)cc2)CC1 [Example 1-46, 4-[[8-(3,4-dihydro-1H-isoquinolin-2-yl)-[1,2,4]triazolo[1,5-a]pyridin-2-yl]amino]-N-methyl-N-(1-methyl-4-piperidyl)benzamide]
- Ki [2, 3]: 10.1 nM
